Test results reported in patent publication US7547728B2, “Treating muscle wasting with selective androgen receptor modulators” (priority 2001, dated 2009).
Values joined by “and” are separate entries in the source; they are usually repeats but may differ in a detail not shown here. Equal values may be shown once. Read-outs that look alike come from different tables or passages of the source.

Tests used:
[1] = system: prostate; assay: Androgenic activity: prostate weight in male rats; type: in vivo, rat; conditions: for Agonist character in prostate: male rats, from organ weights
Excerpt: (§1) Male Sprague-Dawley rats were purchased from Harlan Biosciences (Indianapolis, Ind.). […] One day before the initiation of drug treatment, groups 4 through 6 and groups 7 through 9 received unilateral or bilateral orchidectomy, respectively, via a midline scrotal incision. […] All drugs given to animals were freshly prepared as solutions in polyethylene glycol 300 (PEG 300). Groups 4 and 7 received treatment with vehicle alone (i.e., PEG 300). […] The ventral prostates, seminal vesicles, and levator ani muscle were removed and weighed. Osmotic pumps were also removed from animals to check for correct pump operation. […] Statistical analyses of parameters from complete blood count or serum chemical profiling, wherever applicable, were performed by single-factor ANOVA with the alpha value set a priori at p<0.05.

[2] = system: levator ani muscle; assay: Anabolic activity: levator ani muscle weight in male rats; type: in vivo, rat; conditions: for ED50 / Emax (% of Intact Control) / Relative Afficacy / Relative Potency: levator ani muscle; for ED50 / Emax (% of Intact Control): dose response 0.1-1.0 mg/day; for Relative Afficacy / Relative Potency: relative to TP; for Levator ani muscle weight compared with intact controls: castrated male rats, 0.1-1 mg/day (FIG. 7)
Excerpt: as §1

[3] = system: seminal vesicles; assay: Androgenic activity: seminal vesicle weight in male rats; type: in vivo, rat; conditions: for Seminal Vesicles weight / ED50 / Emax (% of Intact Control): castrated rats; for Agonist character in seminal vesicles: male rats, from organ weights; for ED50 / Emax (% of Intact Control) / Relative Afficacy / Relative Potency: seminal vesicle; for ED50 / Emax (% of Intact Control): dose response 0.1-1.0 mg/day; for Relative Afficacy / Relative Potency: relative to TP
Excerpt: as §1

[4] = biological target: T1, androgen receptor (Rattus norvegicus, UniProt P15207); assay: biochemical; type: binding; conditions: for RBA (%): relative binding affinity
T1 construct: from tissue
T1 sequence (P15207 1-902): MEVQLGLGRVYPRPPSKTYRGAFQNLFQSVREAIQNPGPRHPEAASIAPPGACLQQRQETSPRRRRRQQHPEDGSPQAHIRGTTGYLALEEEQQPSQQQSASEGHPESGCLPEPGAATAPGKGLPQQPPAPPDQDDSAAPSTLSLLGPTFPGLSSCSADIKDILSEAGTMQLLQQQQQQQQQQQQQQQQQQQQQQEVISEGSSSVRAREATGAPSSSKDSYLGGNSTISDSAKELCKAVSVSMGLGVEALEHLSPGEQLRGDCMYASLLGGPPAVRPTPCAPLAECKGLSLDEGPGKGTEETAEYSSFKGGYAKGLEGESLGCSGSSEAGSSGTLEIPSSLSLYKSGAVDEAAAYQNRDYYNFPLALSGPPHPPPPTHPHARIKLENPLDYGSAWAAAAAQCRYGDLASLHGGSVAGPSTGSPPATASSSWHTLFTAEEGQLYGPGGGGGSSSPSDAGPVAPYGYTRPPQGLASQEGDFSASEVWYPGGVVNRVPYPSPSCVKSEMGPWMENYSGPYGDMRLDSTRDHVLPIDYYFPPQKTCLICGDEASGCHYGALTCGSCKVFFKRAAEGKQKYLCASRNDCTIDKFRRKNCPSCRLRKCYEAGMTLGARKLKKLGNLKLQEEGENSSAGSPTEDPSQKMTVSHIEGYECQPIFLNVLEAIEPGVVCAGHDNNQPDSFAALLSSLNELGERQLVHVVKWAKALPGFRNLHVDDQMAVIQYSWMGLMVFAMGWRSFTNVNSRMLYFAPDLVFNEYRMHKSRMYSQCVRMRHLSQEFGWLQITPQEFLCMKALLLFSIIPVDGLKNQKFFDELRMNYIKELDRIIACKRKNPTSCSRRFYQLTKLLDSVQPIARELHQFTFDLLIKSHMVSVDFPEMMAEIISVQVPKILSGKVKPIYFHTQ

[5] = system: levator ani; assay: Levator ani evaluation in androgen-treated intact female rats; type: in vivo, rat; conditions: 14 and 28 days treatment
Excerpt: In these same rats, the levator ani was dissected and evaluated for the expression pattern of MHC family members. […] Physiol. 75(5): 2337-2340, 1993].

[6] = system: MHC IIb mRNA; assay: MHC IIb mRNA expression in masseter and gastrocnemius muscle of intact male rats; conditions: TP 5 mg/kg/day, Compound V 1 mg/kg/day
[7] = system: MHC II b mRNA; assay: MHC IIb mRNA expression by RT-PCR in masseter muscle of intact female rats; type: in vivo, rat
Description: Rat muscle tissue was harvested in 5 volumes of RNA later solution (Ambion, cat.# 7020) and stored at 4° C. until used for RNA isolation. Total RNA was isolated in the FastPrep FP120 instrument (Qbiogene) using RNAqueous-4PCR kit (Ambion, cat # 1914) in combination with FastRNA green tubes (Qbiogene, cat.# 6040-600) at settings for time at 45 sec and speed at 6.5.1 ug of total RNA was used for reverse transcription using Retroscript kit (Ambion, cat# 1710). The mixture was incubated at 42° C. for 60 min, followed by 10 min at 92° C., and then chilled on ice and used in PCR reaction.
Relatively quantitative RT-PCR was used to analyze expression of MHC mRNA in rat musculus masseter (MM) and levator ani (LA). As an internal standard 18S ribosomal RNA was used (QuantumRNA classic 18S Internal Standard, Ambion, cat.# 1716). Linear range of PCR reaction for all primers as well as optimal ratio of 18S primers to competitors to achieve the same level of amplification as the genes of interest was determined.
Primers were obtained from IDT based on the recently published design (Wright et al., J. Appl. Phys. 1997;83:1389), with the following sequence: 5′[…]3′. […]
5 units of Taq DNA polymerase (Roche, cat# 1146165), 200 μM of each dNTP (Invitrogen, cat.#R725-01), 0.2 μM each MHC primer (IDT), 1 μl of cDNA from reverse transcription reaction and 4 μl of 18S primers: competitors mixture were used in 50 μl PCR reaction. […] PCR products were analyzed by agarose gel electrophoresis [20-μl aliquots of a 50-μl PCR reaction loaded on a 1.5% agarose gel (in 1× Tris-Acetate-EDTA buffer) containing 0.2 μg/ml ethidium bromide] to visualize the PCR products. […] Pictures were scanned and the volume of the optical density (OD) of a DNA band was determined by the Image Quant software (Molecular Dynamics), and the background was subtracted (so local background was directly proportional to the amount of DNA over a wide range). […] The content of each experimental group MHC gene was calculated as a percentage of the MHC value in the control group (Table 2).

[8] = Adverse pharmacologic effects in rats of varying hormonal status; type: in vivo, rat; conditions: male rats, 0.5 mg/day, 14 days
[9] = system: FSH, LH and testosterone; assay: Plasma concentrations of FSH, LH and testosterone in treated male rats; type: in vivo, rat; conditions: data not shown
[10] = castrated rats, 1 mg/day, daily injection
[11] = prostate, castrated rats, dose response 0.1-1.0 mg/day

C[C@](O)(COc1c(F)c(F)c(F)c(F)c1F)C(=O)Nc1ccc([N+](=O)[O-])c(C(F)(F)F)c1 [Compound XII]
Prostate weight [1, 10]: 7.2 ± 1.4 % of intact
Agonist character in prostate [1]: weak partial agonist
Levator Ani Muscle weight ([2]; castrated rats, 1 mg/day via osmotic pump): 122.5±10.4 % of intact
Seminal Vesicles weight ([3]; 1 mg/day, daily injection): 7.2 ± 0.9 % of intact
Agonist character in seminal vesicles [3]: weak partial agonist
RBA (%) [4]: 13.3%

C[C@](O)(COc1ccc(F)c(F)c1)C(=O)Nc1ccc([N+](=O)[O-])c(C(F)(F)F)c1 [Compound XI]
Prostate weight [1, 10]: 33.1 ± 8.5 % of intact
Agonist character in prostate [1]: weak partial agonist
Seminal Vesicles weight ([3]; 1 mg/day, daily injection): 23.6 ± 8.8 % of intact
Agonist character in seminal vesicles [3]: weak partial agonist
Ki [4]: 3.4 ± 0.56 nM

C[C@](O)(COc1ccc(F)cc1)C(=O)Nc1ccc(C#N)c(C(F)(F)F)c1 [Compound X]
Prostate weight ([1]; castrated rats, 0.10 mg/day): 6.4 ± 0.82 % of intact
Prostate weight ([1]; castrated rats, 0.50 mg/day): 6.2 ± 0.56 % of intact
Prostate weight ([1]; castrated rats, 0.75 mg/day): 7.6 ± 0.74 % of intact
Prostate weight ([1]; castrated rats, 1.00 mg/day): 8.7±1.39 % of intact
Agonist character in prostate [1]: weak partial agonist
Levator Ani weight ([2]; castrated rats, 0.10 mg/day): 54.9 ± 5.77 % of intact
Levator Ani weight ([2]; castrated rats, 0.50 mg/day): 55.0 ± 9.23 % of intact
Levator Ani weight ([2]; castrated rats, 0.75 mg/day): 68.9 ± 8.46 % of intact
Levator Ani weight ([2]; castrated rats, 1.00 mg/day): 75.2±9.51 % of intact
Seminal Vesicles weight ([3]; 0.10 mg/day): 8.8 ± 1.18 % of intact
Seminal Vesicles weight ([3]; 0.50 mg/day): 9.3 ± 1.57 % of intact
Seminal Vesicles weight ([3]; 0.75 mg/day): 9.8 ± 3.65 % of intact
Seminal Vesicles weight ([3]; 1.00 mg/day): 10.7±0.91 % of intact
Agonist character in seminal vesicles [3]: weak partial agonist

CCC(=O)O[C@H]1CC[C@H]2[C@@H]3CCC4=CC(=O)CC[C@]4(C)[C@H]3CC[C@]12C [TP, testosterone propionate, reference compound]
ED50 [1, 11]: 0.13 ± 0.03 mg/day
Emax (% of Intact Control) [1, 11]: 120.6 ± 13.4 % of Intact Control
Relative Afficacy ([1]; prostate, relative to TP): 1.00
Relative Potency ([1]; prostate, relative to TP): 1.00
ED50 ([2]; castrated rats): 0.15 ± 0.03 mg/day
Emax (% of Intact Control) ([2]; castrated rats): 104.2 ± 10.1 % of Intact Control
Relative Afficacy [2]: 1.00
Relative Potency [2]: 1.00
Presence of levator ani muscle after treatment [5]: had a muscle present in the location expected for the levator ani
ED50 [3]: 0.12 ± 0.02 mg/day
Emax (% of Intact Control) [3]: 70.0 ± 18.8 % of Intact Control
Relative Afficacy [3]: 1.00
Relative Potency [3]: 1.00
MHC type IIb transcription, % of untreated control ([6]; gastrocnemius muscle): 139(±47) %
MHC type IIb transcription, % of untreated control ([6]; masseter muscle): 120(±14) %
MHC IIb expression, % of untreated control [7]: 141.5%
MHC IIb expression, % of untreated control ([7]; listed as testosterone propionate): 142%

C[C@](O)(COc1ccc(Cl)cc1)C(=O)Nc1ccc([N+](=O)[O-])c(C(F)(F)F)c1 [Compound VII]
Levator ani muscle weight compared with intact controls [2]: exceeding those of intact controls

C[C@](O)(COc1ccc(Br)cc1)C(=O)Nc1ccc([N+](=O)[O-])c(C(F)(F)F)c1 [Compound VIII]
Levator ani muscle weight compared with intact controls [2]: close to those of the intact controls
RBA (%) [4]: 5.3%

C[C@](O)(COc1ccc(F)cc1)C(=O)Nc1ccc([N+](=O)[O-])c(C(F)(F)F)c1 [Compound VI]
Levator ani muscle weight compared with intact controls [2]: close to those of the intact controls
ED50 ([2]; castrated rats): 0.44 ± 0.01 mg/day
Emax (% of Intact Control) ([2]; castrated rats): 74.9 ± 0.4 % of Intact Control
Relative Afficacy [2]: 0.72
Relative Potency [2]: 0.34
ED50 [3]: 0.38 ± 0.26 mg/day
Emax (% of Intact Control) [3]: 12.7 ± 3.1 % of Intact Control
Relative Afficacy [3]: 0.18
Relative Potency [3]: 0.32

C[C@](O)(COc1ccc(I)cc1)C(=O)Nc1ccc([N+](=O)[O-])c(C(F)(F)F)c1 [Compound IX]
Levator ani muscle weight compared with intact controls [2]: close to those of the intact controls
RBA (%) [4]: 2.7%

CC(=O)Nc1ccc(OC[C@](C)(O)C(=O)Nc2ccc([N+](=O)[O-])c(C(F)(F)F)c2)cc1 [Compound V]
Agonist character in prostate [1]: partial agonist
Agonist character in levator ani muscle ([2]; male rats, from organ weights): full agonist
Adverse pharmacologic effects [8]: No adverse pharmacologic effects were observed
Presence of levator ani muscle after treatment [5]: had a muscle present in the location expected for the levator ani
Agonist character in seminal vesicles [3]: partial agonist
ED50 [3]: 0.55 ± 0.02 mg/day
Emax (% of Intact Control) [3]: 28.5 ± 0.8 % of Intact Control
MHC type IIb transcription, % of untreated control ([6]; gastrocnemius muscle): 162(±54) %
MHC type IIb transcription, % of untreated control ([6]; masseter muscle): 117(±13) %
Changes in plasma concentrations of FSH, LH and testosterone [9]: absence of any significant changes
MHC IIb expression, % of untreated control [7]: 124% and 124.5%
